Data: patent US20050019746A1, “Apoptosis-related kinase/GPCRs” (EiRx Therapeutics Limited, priority 2003, published 2005)

Columns and labels:
PC3 cells = experiment: 10-14 day Clonagenicity Assay (MTT), PC3; assay type: cell-based, human; settings: for percentage survival relative to the missense, n = 1: independent experiment n = 1, dilution point of maximum toxicity
Text: (§1) The Clonagenicity Assay represents a Cell Viability Screen that allows assessment of a cytotoxic insult at a variety of seed densities of cancer cell lines over an extended period of logarithmic growth, such that the definitive effect of the test substance can be accurately quantified. In this instance, the ‘cytotoxic insult’ to be tested involves the transfection of siRNA Oligomers to knockdown the expression of novel target Kinases and GPCRs as outlined previously. Cell number is quantified 10-14 days post siRNA transfection by MTT conversion as described in detail in Example 6.
(§2) The Clonagenicity Assay is optimised for each cell line examined with respect to seed number. The seed number varies for each cell line and accounts for the differences in cell size, growth rate and sensitivity to transfection-induced toxicity for each cell line pursued. Cells lines given as models for this example include HCT15, MCF7, A549, SKOV3, DU145, U251, PC3, A498 and HeLa. The siRNA oligo to Survivin serves as a positive control for toxicity in this assay and the missense control oligomer acts as a negative control as described in detail in Examples 5 and 6. The c-Raf, BCL2 and PI3K siRNA oligomers serve as additional controls as previously mentioned. The Clonagenicity assay is performed as outlined below.
(§3) Cells are seeded into a 96-well plate as described below and allowed to adhere overnight at 37° C. in a humidified atmosphere containing 5% CO2 in air. Wells are seeded with an appropriate cell number (cell line dependent) in Column 1 of the 96 well plates and this cell suspension is diluted 1 in 2 across the 96 well plates from Column 1 through to 6 (represented on the x-axis in results). Cells are next transfected with siRNA Oligomers, at a concentration of 2 μg/ml, against the genes of interest. Transfections continue for 4 hrs after which the transfection solution is removed and cells are refed with fresh medium and allow to incubate overnight. An additional media change@24 hrs post transfection is made to minimise toxicity of the transfection reagent. Cells are subsequently incubated for a 10-14 Day period post transfection at a 37° C. incubation as described above. Medium is renewed weekly following which MTT quantification is performed as described in Example 5.
(§4) To be considered cytotoxic, the siRNA Oligo against the gene target must induce a decreased viability in a cell line across at least 2 seed densities in the clonagenicity assay, such that a significant difference between the target gene and MS is observed i.e. no crossing of the Standard Error bars is detected. The average percentage viability, relative to missense, is recorded for the dilution point at which Maximum Toxicity is induced is recorded in Table 13.
(§5) Table 13 Clonagenicity Assay—This table gives the average percentage survival of the indicated cell lines relative to the missense in a clonagenicity assay, over 3 independent experiments. As an internal reference, the known survival gene ‘Survivin’, BCL2, c-Raf and PI3KR1 was also targeted by siRNA. When no Cytotoxic response is detected ‘-’ is recorded.

U251 cells = experiment: 10-14 day Clonagenicity Assay (MTT), U251; assay type: cell-based, human; settings: U251, clonagenicity assay, dilution point of maximum toxicity
Text: as §1, §2, §3
Note seed density decreases from 3.5 to 0.1×10^3 cells on the x-axis and the y-axis represents cell number as quantified by MTT conversion, 10-14 days post transfection. This decrease is substantially greater that with the apoptosis gene, Survivin. […] Note seed density decreases from 3.5 to 0.1×10^3 cells on the x-axis and the y-axis represents cell number as quantified by MTT conversion, 10-14 days post transfection.
as §4, §5

[1] = tested on: target gene mRNA in PC3 cells; experiment: Validation of siRNA efficacy by QPCR in PC3 cells; assay type: cell-based, human; settings: PC3, siRNA 50 nM, RNAiFect, 24 hours post transfection, relative to non-silencing control, normalised to GAPDH
Description: To evaluate the ability of each siRNA oligonucleotides to knock down its intended target, each siRNA was validated in a cell line known to express the target, in this example the genes were tested PC3 cells, which were shown by expression profiling to express all target genes. The efficacy of knockdown was measured using QPCR. Cells are plated at a density of 2×10^4 cells in each well of a 24 well plate and incubated at 37° C. overnight. The siRNA is transfected into cells using RNAiFect reagent (Qiagen) with siRNA at a concentration of 50 nM according to manufacturer's instructions. Additional wells of cells are transfected with 50 nM of a non-silencing control (Qiagen). […] Transfected cells are harvested at 24 hours post transfection, and RNA extracted using RNeasy Miniprep columns with an on-column DNase digestion step. The RNA is eluted in 30 μl of RNase-free H2O. cDNA is synthesised from 12 μl of this RNA using an anchored oligo(dT) primer (Sigma) and Transcriptor reverse transcriptase (Roche) at 55° C. in a total volume of 20 μl following the manufacturer's instructions. The resulting cDNA is diluted to a total of 200 μl with H2O and 10 μl used in each QPCR reaction. The levels of transcript are compared by QPCR, relative to the non-silencing control. QPCR is performed using primers, conditions and methodology identical to those used for expression profiling, see Table 8. All reactions were performed in duplicate and the average Ct values calculated. For each sample, the Ct of each target gene in normalised to GAPDH. Relative expression between cells transfected with target or non-silencing siRNA, normalised to GAPDH expression, is determined by the comparative Ct method.

HCT15 cells [2] = experiment: 10-14 day Clonagenicity Assay (MTT), HCT15; assay type: cell-based, human; settings: for percentage survival relative to the missense, n = 1: independent experiment n = 1, dilution point of maximum toxicity
Text: as §1, §2, §3, §4, §5

SKOV3 cells = experiment: 10-14 day Clonagenicity Assay (MTT), SKOV3; assay type: cell-based, human; settings: independent experiment n = 1, dilution point of maximum toxicity
Text: as §1, §2, §3, §4, §5

A498 cells = experiment: 10-14 day Clonagenicity Assay (MTT), A498; assay type: cell-based, human; settings: independent experiment n = 3, dilution point of maximum toxicity
Text: as §1, §2, §3, §4, §5

HCT15 cells [3] = experiment: Anchorage Independence/Soft Agar Assay, HCT15; assay type: cell-based, human; design: PERCENTAGE SURVIVAL RELATIVE TO MS, HCT15, n = 2: tested at 2 µg; PERCENTAGE SURVIVAL RELATIVE TO MS, HCT15, n = 1: tested at 2 µg siRNA; settings: soft agar
Description: (§6) The Anchorage Independence/Soft Agar Assay allows assessment of the influence of modulation of gene expression on clonal tumouroid formation by observing and quantifying tumouroid morphology and colony number over an extended period of logarithmic growth thereby ascertaining any cell death is induced.
(§7) Cells are seeded into a 6-well plate and allowed to adhere overnight at 37° C. in a humidified atmosphere containing 5% CO2 in air. Cells are next transfected with siRNA Oligomers, at a concentration of 2 μg, against the genes of interest. Transfections continued for 4 hrs after which the transfection solution is removed and cells are refed with fresh medium and allowed incubate overnight. Transfected cells are next harvested for seeding into soft agar assay as described below. Cells are seeded at 5×10^4 cells per well of a 6 well plate and incubated over a 12/14-Day period whilst proliferating in a 0.05% Agar/Medium cell suspension at 37° C. in a humidified atmosphere containing 5% CO2 in air. Colonies formed are subsequently stained with Crystal Violet, their morphology is assessed and colonies formed are enumerated at a 4× magnification.
(§8) The cytotoxic effect of each gene is determined by a reduction in colony number compared to our MS control, but any influence on the morphology of the colony is also noted.
(§9) Examples of genes with a cytotoxic effect on knockdown as detected by the soft agar assay are outlined in Table 14. Table 14 gives the percentage survival of the indicated cell lines post transfection with siRNA oligomers to target genes relative to that of the missense in an anchorage independent assay. As an internal reference, the known survival gene Survivin was also targeted by siRNA. This table illustrates the magnitude of cytotoxicity induced by the knockdown of each target gene compared to the MS control i.e. the number of colonies formed are stained with Crystal violet and enumerated visually as discussed.

A549 cells [4] = experiment: Anchorage Independence/Soft Agar Assay, A549; assay type: cell-based, human; design: PERCENTAGE SURVIVAL RELATIVE TO MS, A549, n = 2: tested at 2 µg; settings: soft agar
Description: as §6, §7, §8, §9

A549 cells [5] = experiment: 10-14 day Clonagenicity Assay (MTT), A549; assay type: cell-based, human; settings: independent experiment n = 3, dilution point of maximum toxicity
Text: as §1, §2, §3, §4, §5

DU145 cells = experiment: 10-14 day Clonagenicity Assay (MTT), DU145; assay type: cell-based, human; settings: independent experiment n = 2, dilution point of maximum toxicity
Text: as §1, §2, §3, §4, §5

cancer cell lines = experiment: Anchorage Independence/Soft Agar Assay, summary over the cell lines; assay type: cell-based, human; settings: 14-day anchorage independent assay, over the cell lines examined
Description: as §6, §7, §8
As an internal reference, the known survival gene ‘Survivin’ was also targeted by siRNA.

MCF7 cells = experiment: Anchorage Independence/Soft Agar Assay, MCF7; assay type: cell-based, human; design: PERCENTAGE SURVIVAL RELATIVE TO MS, MCF7, n = 2: tested at 2 µg; settings: soft agar
Description: as §6, §7, §8, §9

[6] = tested on: human primary neutrophils; experiment: Neutrophil apoptosis by sub G1 analysis (DNA fragmentation); assay type: cell-based; settings: inhibitor 20 μM with GM-CSF 50 units/ml, 18 h, relative to GM-CSF alone
Description: Neutrophils are isolated from the blood as described in WO 02/04657 and resuspended at a concentration of 2×10^6/ml. Five hundred microlitres are pipetted into wells of a 24 well plate and incubated in the presence or absence of survival factors.
After this incubation, the neutrophils are carefully resuspended by gentle agitation and the total contents of the well are placed into an eppendorf and centrifuged@2800 rpm for 2 min@RT in a minifuge. The cell pellet is carefully resuspended in 300 μl of ice cold hypotonic fluorochrome solution (50 μg/ml Propidium Iodide, 0.1% Sodium Citrate and 0.1% Triton X-100) and placed in a fridge for 24 h@4° C.
Prepared samples are analysed with a FacsCalibre flow cytometer (Becton Dickinson) using double discrimination to ensure single cell suspension with Log Forward and Side Scatter Parameter acquisition.
Neutrophils are seeded at 2×10^6/ml in a 24 well plate in full culture medium (1 ml/well). A PI3K inhibitor (Ly294002) is added to the neutrophils to a final concentration of 20 μM prior to the addition of GM-CSF (50 units/ml). Control wells received either no GM-CSF or F GM-CSF (50 units/ml) in the absence of inhibitor. Neutrophils are cultured for 18 h at 37° C. prior to harvest and prepared for sub G1 analysis, as previously described.
Neutrophils are seeded at 2×10^6/ml in a 24 well plate in full culture medium (1 ml/well). An AKT inhibitor ([1L-6-Hydroxymethyl-chiro-inositol 2-O-methyl-3-O-octadecylcarbonate] (Calbiochem)) is added to the neutrophils to a final concentration of 20 μM and incubated for 2 h prior to the addition of GM-CSF (50 units/ml). Control wells receive either no GM-CSF or GM-CSF (50 units/ml) in the absence of inhibitor. Neutrophils are cultured for 18 h at 37° C. prior to harvest and prepared for sub G1 analysis, as previously described.

[7] = independent experiment n = 2, dilution point of maximum toxicity

siRNA UKH: siRNA duplex, sense AGCGCAAGACACUCUGUGGtt, antisense CCACAGAGUGUCUUGCGCUtt; same in Tables 9 and 11 (sense AGCGCAAGACACUCUGUGGTT; antisense CCACAGAGUGUCUUGCGCUTT; chemistry not given here)
percentage survival relative to the missense, n = 1 (PC3 cells): 60.6% | percentage survival relative to the missense, n = 3 (PC3 cells; independent experiment n = 3, dilution point of maximum toxicity): 54.4% | percentage survival relative to the missense, n = 1 (U251 cells; independent experiment n = 1): 47.7% | percentage survival relative to the missense, n = 3 (U251 cells; independent experiment n = 3): 48.1% | Decrease in expression of target gene [1]: 75.3% | percentage survival relative to the missense, n = 1 (HCT15 cells [2]): 78.1% | percentage survival relative to the missense, n = 2 (HCT15 cells [2]; [7]): 71.7% | percentage survival relative to the missense, n = 1 (SKOV3 cells): 80.3%

siRNA c-Raf: control siRNA, sense UAGUUCAGCAGUUUGGCUAtt, antisense UAGCCAAACUGCUGAACUAtt (sense UAGUUCAGCAGUUUGGCUATT; antisense UAGCCAAACUGCUGAACUATT; chemistry not given here) [reference compound]
percentage survival relative to the missense, n = 3 (A498 cells): 14.8% | PERCENTAGE SURVIVAL RELATIVE TO MS, HCT15, n = 1 (HCT15 cells [3]; experiment n = 1): 70% | PERCENTAGE SURVIVAL RELATIVE TO MS, HCT15, n = 2 (HCT15 cells [3]; experiment n = 2): 65.1% | PERCENTAGE SURVIVAL RELATIVE TO MS, A549, n = 1 (A549 cells [4]; experiment n = 1): 57% | PERCENTAGE SURVIVAL RELATIVE TO MS, A549, n = 2 (A549 cells [4]; experiment n = 2): 24.2% | percentage survival relative to the missense, n = 3 (A549 cells [5]): 59.1% | percentage survival relative to the missense, n = 2 (DU145 cells): 54.9% | cell death / apoptosis in the soft agar assay (cancer cell lines): only induced cell death in the A549 and HCT15 cell lines | percentage survival relative to the missense, n = 1 (HCT15 cells [2]): 83.5% | PERCENTAGE SURVIVAL RELATIVE TO MS, MCF7, n = 1 (MCF7 cells; experiment n = 1): 89.7% | PERCENTAGE SURVIVAL RELATIVE TO MS, MCF7, n = 2 (MCF7 cells; experiment n = 2): 98.2% | percentage survival relative to the missense, n = 1 (SKOV3 cells): 42.5%

siRNA ITPKC: siRNA duplex, sense GUCCUGGGCUGAUAACCUCtt, antisense GAGGUUAUCAGCCCAGGACtt; same in Tables 9 and 11 (sense GUCCUGGGCUGAUAACCUCTT; antisense GAGGUUAUCAGCCCAGGACTT; chemistry not given here)
percentage survival relative to the missense, n = 1 (PC3 cells): 45.1% | percentage survival relative to the missense, n = 2 (PC3 cells; [7]): 51.3% | Decrease in expression of target gene [1]: 83.9%

CCCCCCCCCCCCCCCCCCOC(=O)OC1C(O)C(O)C(CO)C(O)C1OC (stereo not shown) [1L-6-Hydroxymethyl-chiro-inositol 2-O-methyl-3-O-octadecylcarbonate]
apoptosis / GM-CSF mediated survival by sub G1 analysis [6]: survival is abrogated | apoptosis / GM-CSF mediated survival by sub G1 analysis ([6]; listed as IL-6-Hydroxymethyl-chiro-inositol 2-(R)-2-O-methyl-3-O-octadecylcarbonate): increases the amount of apoptosis
